Test results as given in patent US20100311714A1, “1H-IMIDAZO[4,5-c]QUINOLINONE COMPOUNDS” (priority 2009, published 2010).
Where two headings read alike, the source gives them in different places.

How the values were obtained:
[1] = test system: PKB Ser473 phosphorylation in Rat1-myr-HA-p110 delta cells; experiment: Reverse protein array, PKB Ser473 phosphorylation in Rat1-myr-HA-p110 delta cells; assay type: cell-based; details: Rattus norvegicus, 0.5 h, 30 minutes compound incubation, read-out: p-PKB/IC50_delta
[2] = test system: S6 Ribosomal Protein phosphorylation Ser235/236 in TSC1 null mouse embryo fibroblast (MEF) cells; experiment: Reverse protein array, S6 Ribosomal Protein phosphorylation in TSC1 null MEF cells; assay type: cell-based; details: 1 h, TSC1-/- MEFs, 60 minutes
Summary of the method: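 Phospho-S6 (Ser235/236) was quantified by reverse protein array of cell lysates with a phospho-specific primary antibody. […]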

## CCOc1ccc(-c2ccc3ncc4c(c3c2)n(-c2ccc(F)nc2C)c(=O)n4C)cn1 [Example 7.3, 8-(6-Ethoxy-pyridin-3-yl)-1-(6-fluoro-2-methyl-pyridin-3-yl)-3-methyl-1,3-dihydro-imidazo[4,5-c]quinolin-2-one]
[1]
  IC50: 85.8 nM
[2]; read-out: p-S6
  IC50: 84.3 nM

## COc1ncccc1-n1c(=O)n(C)c2cnc3ccc(-c4cnc5[nH]ccc5c4)cc3c21 [Example 1.2, 1-(2-Methoxy-pyridin-3-yl)-3-methyl-8-(1H-pyrrolo[2,3-b]pyridin-5-yl)-1,3-dihydro-imidazo[4,5-c]quinolin-2-one]
[1]
  IC50: 8.01 nM
[2]; read-out: p-S6
  IC50: 2.61 nM

## CNc1ncc(-c2ccc3ncc4c(c3c2)n(-c2ccc(N(C)CCO)nc2C)c(=O)n4C)cn1 [Example 26.2, 1-{6-[(2-Hydroxy-ethyl)-methyl-amino]-2-methyl-pyridin-3-yl}-3-methyl-8-(2-methylamino-pyrimidin-5-yl)-1,3-dihydro-imidazo[4,5-c]quinolin-2-one]
[1]
  IC50: 10.4 nM
[2]; read-out: p-S6 IC50
  IC50: < 0.457 nM

## Cc1ncccc1-n1c(=O)n(C)c2cnc3ccc(-c4ccc(C(N)=O)cc4)cc3c21 [Example 2.3, 4-[3-Methyl-1-(2-methyl-pyridin-3-yl)-2-oxo-2,3-dihydro-1H-imidazo[4,5-c]quinolin-8-yl]-benzamide]
[1]
  IC50: 23.6 nM
[2]; read-out: p-S6
  IC50: 56.4 nM

## CCOc1cc(-c2ccc3ncc4c(c3c2)n(-c2ccc(N3CCCC3)nc2C)c(=O)n4C)cnc1COC [Example 25.2, 8-(5-Ethoxy-6-methoxymethyl-pyridin-3-yl)-3-methyl-1-(2-methyl-6-pyrrolidin-1-yl-pyridin-3-yl)-1,3-dihydro-imidazo[4,5-c]quinolin-2-one]
[1]
  IC50: 124 nM
[2]; read-out: p-S6 IC50
  IC50: 2 nM

## Cc1nc(F)ccc1-n1c(=O)n(C)c2cnc3ccc(-c4cnc5c(ccn5C)c4)cc3c21 [Example 7.2, 1-(6-Fluoro-2-methyl-pyridin-3-yl)-3-methyl-8-(1-methyl-1H-pyrrolo[2,3-b]pyridin-5-yl)-1,3-dihydro-imidazo[4,5-c]quinolin-2-one]
[1]
  IC50: 69.7 nM
[2]; read-out: p-S6
  IC50: 17.9 nM

## Cc1nc(N2CC[C@H](O)C2)ccc1-n1c(=O)n(C)c2cnc3ccc(-c4cncc(OC(C)C)c4)cc3c21 [Example 32.8, 1-[6-((S)-3-Hydroxy-pyrrolidin-1-yl)-2-methyl-pyridin-3-yl]-8-(5-isopropoxy-pyridin-3-yl)-3-methyl-1,3-dihydro-imidazo[4,5-c]quinolin-2-one]
[1]
  IC50: 95.3 nM
[2]; read-out: p-S6 IC50
  IC50: 2.2 nM

## Cc1ncccc1-n1c(=O)n(C)c2cnc3ccc(-c4cncc(NC(C)C)c4)cc3c21 [Example 2.24, 8-(5-Isopropylamino-pyridin-3-yl)-3-methyl-1-(2-methyl-pyridin-3-yl)-1,3-dihydro-imidazo[4,5-c]quinolin-2-one]
[1]
  IC50: 28.9 nM
[2]; read-out: p-S6 IC50
  IC50: 4 nM

## CNc1ccc(-c2ccc3ncc4c(c3c2)n(-c2ccc(F)nc2C)c(=O)n4C)cn1 [Example 7.4, 1-(6-Fluoro-2-methyl-pyridin-3-yl)-3-methyl-8-(6-methylamino-pyridin-3-yl)-1,3-dihydro-imidazo[4,5-c]quinolin-2-one]
[1]
  IC50: 19.3 nM
[2]; read-out: p-S6
  IC50: 8.52 nM

## Cc1ncccc1-n1c(=O)n(C)c2cnc3ccc(-c4ccc(OCCCN(C)C)nc4)cc3c21 [Example 2.10, 8-[6-(3-Dimethylamino-propoxy)-pyridin-3-yl]-3-methyl-1-(2-methyl-pyridin-3-yl)-1,3-dihydro-imidazo[4,5-c]quinolin-2-one]
[1]
  IC50: 227 nM
[2]; read-out: p-S6
  IC50: 159 nM

## COc1ccc(-c2ccc3ncc4c(c3c2)n(-c2cnccc2C)c(=O)n4C)cn1 [Example 4.3, 8-(6-Methoxy-pyridin-3-yl)-3-methyl-1-(4-methyl-pyridin-3-yl)-1,3-dihydro-imidazo[4,5-c]quinolin-2-one]
[1]
  IC50: 681 nM
[2]; read-out: p-S6
  IC50: 220 nM

## COc1ccc(-c2ccc3ncc4c(c3c2)n(-c2cccnc2C)c(=O)n4C)cn1 [Example 2.12, 8-(6-Methoxy-pyridin-3-yl)-3-methyl-1-(2-methyl-pyridin-3-yl)-1,3-dihydro-imidazo[4,5-c]quinolin-2-one]
[1]
  IC50: 79.8 nM
[2]; read-out: p-S6
  IC50: 18 nM

## CCOc1cc(-c2ccc3ncc4c(c3c2)n(-c2ccc(F)nc2C)c(=O)n4C)cnc1COC [Example 7.5, 8-(5-Ethoxy-6-methoxymethyl-pyridin-3-yl)-1-(6-fluoro-2-methyl-pyridin-3-yl)-3-methyl-1,3-dihydro-imidazo[4,5-c]quinolin-2-one]
[1]
  IC50: 182 nM
[2]; read-out: p-S6 IC50
  IC50: 21 nM

## Cc1cccnc1-n1c(=O)n(C)c2cnc3ccc(-c4cnc(N)c(C(F)(F)F)c4)cc3c21 [Example 3.12, 8-(6-Amino-5-trifluoromethyl-pyridin-3-yl)-3-methyl-1-(3-methyl-pyridin-2-yl)-1,3-dihydro-imidazo[4,5-c]quinolin-2-one]
[1]
  IC50: 75.5 nM
[2]; read-out: p-S6
  IC50: 13.2 nM

## CNc1ncc(-c2ccc3ncc4c(c3c2)n(-c2ccc(N3CC(F)(F)C3)nc2C)c(=O)n4C)cn1 [Example 24.1, 1-[6-(3,3-Difluoro-azetidin-1-yl)-2-methyl-pyridin-3-yl]-3-methyl-8-(2-methylamino-pyrimidin-5-yl)-1,3-dihydro-imidazo[4,5-c]quinolin-2-one]
[1]
  IC50: 42.6 nM
[2]; read-out: p-S6 IC50
  IC50: 2 nM

## Cc1nc(F)ccc1-n1c(=O)n(C)c2cnc3ccc(-c4cncc(C(C)(C)O)c4)cc3c21 [Example 7.8, 1-(6-Fluoro-2-methyl-pyridin-3-yl)-8-[5-(1-hydroxy-1-methyl-ethyl)-pyridin-3-yl]-3-methyl-1,3-dihydro-imidazo[4,5-c]quinolin-2-one]
[1]
  IC50: 80.8 nM
[2]; read-out: p-S6 IC50
  IC50: 10 nM

## COc1cc(-c2ccc3ncc4c(c3c2)n(-c2cccnc2C)c(=O)n4C)cnc1C(OC)OC [Example 2.27, 8-(6-Dimethoxymethyl-5-methoxy-pyridin-3-yl)-3-methyl-1-(2-methyl-pyridin-3-yl)-1,3-dihydro-imidazo[4,5-c]quinolin-2-one]
[1]
  IC50: 825 nM
[2]; read-out: p-S6 IC50
  IC50: 54 nM

## CCNc1ncc(-c2ccc3ncc4c(c3c2)n(-c2ccc(N3CC[C@@H](O)C3)nc2C)c(=O)n4C)cc1COCC [Example 34.4, 8-(5-Ethoxymethyl-6-ethylamino-pyridin-3-yl)-1-[6-((R)-3-hydroxy-pyrrolidin-1-yl)-2-methyl-pyridin-3-yl]-3-methyl-1,3-dihydro-imidazo[4,5-c]quinolin-2-one]
[1]
  IC50: 253 nM
[2]; read-out: p-S6 IC50
  IC50: 8 nM
